Test results reported in US3958000A, “Fungicidal 2-arylthio-, 2-alkylthio- and 2-haloalkylthio-1,2,4-oxadiazolidine-3,5-diones” (Chevron Research Company, priority 1975, dated 1976).

Tests used:
Assay type in all cases: cell-based
[1] = tested on: Botrytis cinerea; test: Fungal spore control (spore slide-germination) against Botrytis cinerea; conditions: Conc. 10 ppm, overnight in moist chamber, read-out: % Control (percent inhibition of germination of fungus spores)
[2] = tested on: Alternaria solani; test: Fungal spore control (spore slide-germination) against Alternaria solani; conditions: Conc. 4 ppm, overnight in moist chamber, read-out: % Control (percent inhibition of germination of fungus spores)
[3] = tested on: Monolinia fructicola; test: Fungal spore control (spore slide-germination) against Monolinia fructicola; conditions: Conc. 10 ppm, overnight in moist chamber, read-out: % Control (percent inhibition of germination of fungus spores)

Compound: CC(C)n1c(=O)on(SC(Cl)(Cl)Cl)c1=O [Compound 3]
- inhibition at 10 ppm [1]: 100%
- inhibition at 4 ppm [2]: 99%
- inhibition at 10 ppm [3]: 100%

Compound: O=c1on(SC(Cl)(Cl)Cl)c(=O)n1C1CCCCC1 [Compound 1, 2-trichloromethylthio-4-cyclohexyl-1,2,4-oxadiazolidine-3,5-dione]
- inhibition at 10 ppm [1]: 100%
- inhibition at 4 ppm [2]: 78%
- inhibition at 10 ppm [3]: 100%
